IC50 data for 10 molecules are collected here from patent US20240376099A1, “COMPOUNDS AND COMPOSITIONS AS INHIBITORS OF ENDOSOMAL TOLL-LIKE RECEPTORS” (Novartis AG, priority 2016, published 2024).

In this test the target is T1, TLR9 (Homo sapiens, UniProt Q9NR96).
T1 construct: Fresh blood was collected from normal human donors; endogenous in cells; host or cells: human PBMCs from fresh donor blood
T1 sequence (Q9NR96 26-1032): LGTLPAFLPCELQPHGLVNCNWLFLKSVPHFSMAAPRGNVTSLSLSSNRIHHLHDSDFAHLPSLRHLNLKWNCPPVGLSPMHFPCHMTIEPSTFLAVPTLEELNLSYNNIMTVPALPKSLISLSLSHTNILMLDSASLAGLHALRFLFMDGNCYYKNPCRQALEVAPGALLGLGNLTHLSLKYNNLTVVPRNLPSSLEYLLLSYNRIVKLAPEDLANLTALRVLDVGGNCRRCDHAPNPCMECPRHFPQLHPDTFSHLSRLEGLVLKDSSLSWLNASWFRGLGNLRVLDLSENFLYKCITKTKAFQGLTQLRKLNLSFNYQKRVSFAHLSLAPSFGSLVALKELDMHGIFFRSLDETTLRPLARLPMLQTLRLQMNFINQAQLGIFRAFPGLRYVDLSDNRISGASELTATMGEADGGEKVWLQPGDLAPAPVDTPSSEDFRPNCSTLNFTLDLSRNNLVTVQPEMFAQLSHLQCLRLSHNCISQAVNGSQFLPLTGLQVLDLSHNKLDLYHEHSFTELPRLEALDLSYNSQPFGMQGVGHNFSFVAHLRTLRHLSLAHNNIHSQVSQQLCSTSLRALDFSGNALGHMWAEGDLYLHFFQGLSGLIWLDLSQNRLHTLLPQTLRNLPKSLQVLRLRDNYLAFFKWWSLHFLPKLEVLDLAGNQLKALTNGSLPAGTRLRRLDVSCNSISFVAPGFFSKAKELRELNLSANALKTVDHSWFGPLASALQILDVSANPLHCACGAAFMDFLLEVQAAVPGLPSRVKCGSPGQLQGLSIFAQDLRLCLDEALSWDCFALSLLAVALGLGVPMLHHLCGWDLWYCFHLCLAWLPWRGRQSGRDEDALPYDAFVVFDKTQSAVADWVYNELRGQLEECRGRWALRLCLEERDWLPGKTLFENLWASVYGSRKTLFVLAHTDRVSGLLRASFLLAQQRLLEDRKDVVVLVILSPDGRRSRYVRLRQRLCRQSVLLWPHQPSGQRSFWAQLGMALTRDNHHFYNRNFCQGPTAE
Description: huPBMC TLR9 Antagonist IFNα Assay. It counts as cell-based. To be noted: human PBMCs stimulated with ODN2216 0.3 μM, 14-16 hrs; IFNα2b AlphaLISA read-out. In a few lines: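 Human PBMCs from fresh donor blood (150,000 cells/well) stimulated 14–16 h at 37 °C with DOTAP-complexed ssRNA40 (final 1 μg/ml for TLR8, 10 μg/mL for TLR7) or ODN2216 (final 0.3 μM, TLR9), 0.25% DMSO, ten-point 1/3 compound dilutions. Supernatant IL-6 read by HTRF (TLR8); IFNα by IFNα2b AlphaLISA (TLR7/TLR9).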

Consider `Cc1cc(N2CCc3c(c(C)nn3CC34CCC(N)(CC3)CC4)C2)c2cnn(C)c2n1` [Compound No. 1, 4-((5-(1,6-dimethyl-1H-pyrazolo[3,4-b]pyridin-4-yl)-3-methyl-4,5,6,7-tetrahydro-1H-pyrazolo[4,3-c]pyridin-1-yl)methyl)bicyclo[2.2.2]octan-1-amine], for which the half-maximal inhibitory concentration (IC50) turned out to be 1520 nM. In the case of `Cc1cc(N2CCc3c(c(C)nn3CC34CCC(N)(CC3)CC4)C2)c2cn[nH]c2n1` [Compound No. 2, 4-((3-methyl-5-(6-methyl-1H-pyrazolo[3,4-b]pyridin-4-yl)-4,5,6,7-tetrahydro-1H-pyrazolo[4,3-c]pyridin-1-yl)methyl)bicyclo[2.2.2]octan-1-amine], the 50% inhibitory concentration (IC50) was 3130 nM. For `Cc1cc(N2CCc3c(c(C)nn3CC34CCC(N(C)C(=O)OC(C)(C)C)(CC3)CC4)C2)c2cnn(C)c2n1` [Compound No. 49, tert-butyl (4-((5-(1,6-dimethyl-1H-pyrazolo[3,4-b]pyridin-4-yl)-3-methyl-4,5,6,7-tetrahydro-1H-pyrazolo[4,3-c]pyridin-1-yl)methyl)bicyclo[2.2.2]octan-1-yl)(methyl)carbamate] the value was 3950 nM. To `CNC12CCC(Cn3nc(C)c4c3CCN(c3cc(C)nc5c3cnn5C)C4)(CC1)CC2` [Compound No. 50, 4-((5-(1,6-dimethyl-1H-pyrazolo[3,4-b]pyridin-4-yl)-3-methyl-4,5,6,7-tetrahydro-1H-pyrazolo[4,3-c]pyridin-1-yl)methyl)-N-methylbicyclo[2.2.2]octan-1-amine] belongs 376 nM. To `Cc1cc(N2CCc3c(c(C)nn3CC34CCC(NC(=O)OC5(C)CC5)(CC3)CC4)C2)c2cnn(C)c2n1` [Compound No. 51, 1-methylcyclopropyl (4-((5-(1,6-dimethyl-1H-pyrazolo[3,4-b]pyridin-4-yl)-3-methyl-4,5,6,7-tetrahydro-1H-pyrazolo[4,3-c]pyridin-1-yl)methyl)bicyclo[2.2.2]octan-1-yl)carbamate] belongs 7550 nM; to `COc1ccc(Cn2ncc3c(N4CCc5c(c(C)nn5CC56CCC(N)(CC5)CC6)C4)cc(C)nc32)cc1` [Compound No. 53, 4-((5-(1-(4-methoxybenzyl)-6-methyl-1H-pyrazolo[3,4-b]pyridin-4-yl)-3-methyl-4,5,6,7-tetrahydro-1H-pyrazolo[4,3-c]pyridin-1-yl)methyl)bicyclo[2.2.2]octan-1-amine], 1730 nM. Turning to `Cc1cc(N2CCc3c(c(C)nn3CC34CCC(N5CCCC5)(CC3)CC4)C2)c2cnn(C)c2n1` [Compound No. 58, 5-(1,6-dimethyl-1H-pyrazolo[3,4-b]pyridin-4-yl)-3-methyl-1-((4-(pyrrolidin-1-yl)bicyclo[2.2.2]octan-1-yl)methyl)-4,5,6,7-tetrahydro-1H-pyrazolo[4,3-c]pyridine], the half-maximal inhibitory concentration (IC50) was 639 nM. In the case of `Cc1cc(N2CCc3c(c(C)nn3CC34CCC(N5CCOCC5)(CC3)CC4)C2)c2cnn(C)c2n1` [Compound No. 59, 4-(4-((5-(1,6-dimethyl-1H-pyrazolo[3,4-b]pyridin-4-yl)-3-methyl-4,5,6,7-tetrahydro-1H-pyrazolo[4,3-c]pyridin-1-yl)methyl)bicyclo[2.2.2]octan-1-yl)morpholine], the half-inhibitory concentration (IC50) was found to be 2170 nM. To `COCCNC12CCC(Cn3nc(C)c4c3CCN(c3cc(C)nc5c3cnn5C)C4)(CC1)CC2` [Compound No. 69, 4-((5-(1,6-dimethyl-1H-pyrazolo[3,4-b]pyridin-4-yl)-3-methyl-4,5,6,7-tetrahydro-1H-pyrazolo[4,3-c]pyridin-1-yl)methyl)-N-(2-methoxyethyl)bicyclo[2.2.2]octan-1-amine] belongs 442 nM; to `Cc1cc(N2CCc3c(c(C)nn3CC34CCC(N(C)C5COC5)(CC3)CC4)C2)c2cnn(C)c2n1` [Compound No. 77, N-(4-((5-(1,6-dimethyl-1H-pyrazolo[3,4-b]pyridin-4-yl)-3-methyl-4,5,6,7-tetrahydro-1H-pyrazolo[4,3-c]pyridin-1-yl)methyl)bicyclo[2.2.2]octan-1-yl)-N-methyloxetan-3-amine], 179 nM.

What is called IC50 is the concentration that inhibits the measured activity by half.
